Test [1] addresses T1, TYK2-JH2 (aa 575-869, in-house) protein (Homo sapiens, UniProt P29597).
T1 construct: TYK2-JH2 (aa 575-869, in-house) protein; made in house
As to the kind of experiment: TYK2-JH2 biochemical assay (HTRF probe displacement). The class given is binding. The conditions noted are these: Biochemical assay; read-out: TYK2-JH2 IC50. The method, boiled down: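 HTRF probe-displacement format: compound dilutions (10 points, 5-fold, from 500 uM in DMSO at 500×) were combined with 0.2 nM TYK2-JH2 protein for 0.5 h at room temperature in HEPES pH 7.5 buffer with MgCl2, BSA, DTT and Brij-35. Percent inhibition came from the 615/665 nm fluorescence ratio, fitted to a four-parameter logistic for IC50.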
Background: Time-resolved FRET reads energy transfer from a long-lived donor to a nearby acceptor.

In test [2] the test system is pSTAT5/GM-CSF. As to the kind of experiment: pSTAT5/GM-CSF cellular assay (JAK2 selectivity). The conditions noted are these: for Selectivity fold (TYK2/JAK2): pSTAT5/GM-CSF vs pSTAT4/IL-12. The class given is cell-based.
In test [3] the test system is JAK2, TYK2/p-STAT4 (Tyr693) activated by IL-12 in NK-92 cell line. Nature of the test: IL-12-JAK2, TYK2/p-STAT4 (Tyr693) inhibition IC50 cellular assay. The class given is cell-based. As to conditions: for Selectivity fold (TYK2/JAK2): Cellular assay, pSTAT5/GM-CSF IC50 vs pSTAT4/IL-12 IC50; for IC50: NK92, Cellular assay, read-out: pSTAT4/IL-12 IC50. The method, boiled down:
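p-STAT4 (Tyr693) in lysates was measured by AlphaLISA SureFire Ultra after a 30 min IL-12 challenge (40 ng/ml final) at 37° C. Overnight-starved, IL-2-free NK-92 cells had been pretreated 1 h with compound at 10000 to 0.61 nM (4-fold, 8 points). IC50 values came from four-parameter logistic fitting.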

T1 sequence (P29597 575-869): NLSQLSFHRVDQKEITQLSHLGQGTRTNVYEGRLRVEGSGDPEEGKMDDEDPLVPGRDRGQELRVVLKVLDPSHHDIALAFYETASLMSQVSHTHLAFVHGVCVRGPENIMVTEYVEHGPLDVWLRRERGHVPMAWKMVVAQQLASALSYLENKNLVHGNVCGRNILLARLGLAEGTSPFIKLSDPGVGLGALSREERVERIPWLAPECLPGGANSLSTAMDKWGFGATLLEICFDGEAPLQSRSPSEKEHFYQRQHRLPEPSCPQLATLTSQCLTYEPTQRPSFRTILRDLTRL

Regarding `CC(=O)Nc1cc(Nc2cc(C)cc(S(C)(=O)=O)n2)c(-c2ccc(F)cn2)cn1` [Example F17, N-(5-fluoro-4′-((4-methyl-6-(methylsulfonyl)pyridin-2-yl)amino)-[2,3′-bipyridin]-6′-yl)acetamide], the IC50 in test [1] is 0.054 nM; in test [2], over 10000 nM; in test [3], 1.25 nM. The “Selectivity fold (TYK2/JAK2)” value in test [3] is reported as over 8000 fold.
In the same order, the values of `CCOc1cc(Nc2cc(NC(C)=O)ncc2-c2ccc(F)cn2)nc(S(C)(=O)=O)c1` [Example F19, N-(4′-((4-ethoxy-6-(methylsulfonyl)pyridin-2-yl)amino)-5-fluoro-[2,3′-bipyridin]-6′-yl)acetamide] are 0.036 nM, over 10000 nM, 3.06 nM and over 3267 fold.
The matching figures for `COc1cc(Nc2cc(NC(C)=O)ncc2-c2ccc(C(F)(F)F)cn2)nc(S(C)(=O)=O)c1` [Example F20, N-(4′-((4-methoxy-6-(methylsulfonyl)pyridin-2-yl)amino)-5-(trifluoromethyl)-[2,3′-bipyridin]-6′-yl)acetamide]: 0.031 nM, over 10000 nM, 1.45 nM and over 6896 fold.
On to `CC(=O)Nc1cc(Nc2cc(OC[C@H](C)O)cc(S(C)(=O)=O)n2)c(-c2ccc(C(F)(F)F)cn2)cn1` [Example F21, (S)-N-(4′-((4-(2-hydroxypropoxy)-6-(methylsulfonyl)pyridin-2-yl)amino)-5-(trifluoromethyl)-[2,3′-bipyridin]-6′-yl)acetamide], for which the IC50 in test [1] was 0.026 nM; in test [2] it was over 10000 nM; in test [3] it was 3.54 nM. The “Selectivity fold (TYK2/JAK2)” value in test [3] is over 2814 fold.
Take `COc1cc(S(C)(=O)=O)nc(Nc2cc(NC(C)=O)ncc2-c2ccc(F)cn2)c1OC` [Example F23, N-(4′-((3,4-dimethoxy-6-(methylsulfonyl)pyridin-2-yl)amino)-5-fluoro-[2,3′-bipyridin]-6′-yl)acetamide]: the IC50 in test [1] is 0.02 nM; in test [2], over 10000 nM; in test [3], 1.07 nM. Besides, in test [3], the “Selectivity fold (TYK2/JAK2)” value was over 9345 fold.
The matching figures for `[2H]C([2H])([2H])Oc1cc(Nc2cc(NC(C)=O)ncc2-c2ccc(F)cn2)nc(S(C)(=O)=O)c1` [Example F24, N-(5-fluoro-4′-((4-(methoxy-d3)-6-(methylsulfonyl)pyridine-2-yl)amino)-[2,3′-bipyridin]-6′-yl)acetamide]: 0.033 nM, over 10000 nM, 0.82 nM and over 12195 fold.
The matching figures for `CC(=O)Nc1cc(Nc2cc(C3CC3)cc(S(C)(=O)=O)n2)c(-c2ccc(F)cn2)cn1` [Example F25, N-(4′-((4-cyclopropyl-6-(methylsulfonyl)pyridin-2-yl)amino)-5-fluoro-[2,3′-bipyridin]-6′-yl)acetamide]: 0.029 nM, over 10000 nM, 0.446 nM and over 22421 fold.
Consider `CC(=O)Nc1cc(Nc2cccc(S(C)(=O)=O)n2)c(-c2ccc(N3CCOCC3=O)cn2)cn1` [Example G2, N-(4′-((6-(methylsulfonyl)pyridin-2-yl)amino)-5-(3-oxomorpholino)-[2,3′-bipyridin]-6′-yl)acetamide], for which the IC50 in test [1] is 0.067 nM; in test [2] it was over 10000 nM; in test [3], 14.2 nM. The “Selectivity fold (TYK2/JAK2)” value in test [2] is reported as over 704 fold.
In the same order, the values of `CC(=O)Nc1cc(Nc2cc(OCCO)cc(S(C)(=O)=O)n2)c(-c2ccc(N3CCOCC3=O)cn2)cn1` [Example G3, N-(4′-((4-(2-hydroxyethoxy)-6-(methylsulfonyl)pyridin-2-yl)amino)-5-(3-oxomorpholino)-[2,3′-bipyridin]-6′-yl)acetamide] are 0.05 nM, over 10000 nM, 224 nM and over 44 fold.
Regarding `COCCOc1cc(Nc2cc(NC(C)=O)ncc2-c2ccc(N3CCOCC3=O)cn2)nc(S(C)(=O)=O)c1` [Example G4, N-(4′-((4-(2-methoxyethoxy)-6-(methylsulfonyl)pyridin-2-yl)amino)-5-(3-oxomorpholino)-[2,3′-bipyridin]-6′-yl)acetamide], the IC50 is 0.048 nM in test [1], over 10000 nM in test [2] and 16 nM in test [3]. In test [2], the “Selectivity fold (TYK2/JAK2)” value is recorded as over 625 fold.
In the case of `CC(=O)Nc1cc(Nc2cc(OC(C)C)cc(S(C)(=O)=O)n2)c(-c2ccc(C(C)(C)O)cn2)cn1` [Example H2, N-(5-(2-hydroxypropan-2-yl)-4′-((4-isopropoxy-6-(methylsulfonyl)pyridin-2-yl)amino)-[2,3′-bipyridin]-6′-yl)acetamide], the IC50 in test [1] is 0.036 nM; in test [2], over 10000 nM; in test [3], 0.939 nM. The “Selectivity fold (TYK2/JAK2)” value in test [3] is listed as over 10649 fold.
For the molecule `CC(=O)Nc1cc(Nc2cc(C(F)(F)F)cc(S(C)(=O)=O)c2)c(-c2ccc(C(C)(C)O)cn2)cn1` [Example H3, N-(5-(2-hydroxypropan-2-yl)-4′-((3-(methylsulfonyl)-5-(trifluoromethyl)phenyl)amino)-[2,3′-bipyridin]-6′-yl)acetamide], the IC50 in test [1] came out at 0.048 nM; in test [2] it was 7180 nM; in test [3], 8.52 nM. The “Selectivity fold (TYK2/JAK2)” value in test [3] is over 843 fold.
For `CC(=O)Nc1cc(Nc2cccc(S(C)(=O)=O)n2)c(-c2ccc(C(C)(C)O)cn2)cn1` [Example H5, N-(5-(2-hydroxypropan-2-yl)-4′-((6-(methylsulfonyl)pyridin-2-yl)amino)-[2,3′-bipyridin]-6′-yl)acetamide], the IC50 in test [1] was 0.015 nM; in test [2] it was 1680 nM; in test [3], 0.323 nM. Also, the “Selectivity fold (TYK2/JAK2)” value in test [3] came out at 5185 fold.
Take `COCCOc1cc(Nc2cc(NC(C)=O)ncc2-c2ccc(C(C)(C)O)cn2)nc(S(C)(=O)=O)c1` [Example H6, N-(5-(2-hydroxypropan-2-yl)-4′-((4-(2-methoxyethoxy)-6-(methylsulfonyl)pyridin-2-yl)amino)-[2,3′-bipyridin]-6′-yl)acetamide]: the results for the IC50 in test [1], in test [2] and in test [3] were 0.014 nM, 8870 nM and 1.25 nM, respectively. Further, in test [3], the “Selectivity fold (TYK2/JAK2)” value is given as 7097 fold.
The matching figures for `COC(C)COc1cc(Nc2cc(NC(C)=O)ncc2-c2ccc(C(C)(C)O)cn2)nc(S(C)(=O)=O)c1` (stereo not shown) [Example H7, N-(5-(2-hydroxypropan-2-yl)-4′-((4-(2-methoxypropoxy)-6-(methylsulfonyl)pyridin-2-yl)amino)-[2,3′-bipyridin]-6′-yl)acetamide]: 0.046 nM, over 10000 nM, 1.22 nM and over 8196 fold.
The matching figures for `CC(=O)Nc1cc(Nc2cc(OCCO)cc(S(C)(=O)=O)n2)c(-c2ccc(C(C)(C)O)cn2)cn1` [Example H8, N-(4′-((4-(2-hydroxyethoxy)-6-(methylsulfonyl)pyridin-2-yl)amino)-5-(2-hydroxypropan-2-yl)-[2,3′-bipyridin]-6′-yl)acetamide]: 0.041 nM, over 10000 nM, 21.7 nM and over 461 fold.

The record behind these values is US20240043435A1, “TYK-2 INHIBITOR” (BEIGENE, LTD., priority 2020, published 2024).
